The results in this text go back to patent US20080109040A1, “METHOD OF TREATING ARRHYTHMIAS” (priority 2002, published 2008).

For this data set, the target named is T1, rapidly activating component of the delayed rectifier current (IKr) (Canis lupus familiaris, UniProt Q9TSZ3).
T1 construct: Myocytes were isolated by enzymatic dissociation from a wedge-shaped section of the left ventricular free wall; endogenous in cells; host or cells: isolated canine left ventricular myocytes (epicardial and midmyocardial)
T1 sequence (Q9TSZ3 1-1158): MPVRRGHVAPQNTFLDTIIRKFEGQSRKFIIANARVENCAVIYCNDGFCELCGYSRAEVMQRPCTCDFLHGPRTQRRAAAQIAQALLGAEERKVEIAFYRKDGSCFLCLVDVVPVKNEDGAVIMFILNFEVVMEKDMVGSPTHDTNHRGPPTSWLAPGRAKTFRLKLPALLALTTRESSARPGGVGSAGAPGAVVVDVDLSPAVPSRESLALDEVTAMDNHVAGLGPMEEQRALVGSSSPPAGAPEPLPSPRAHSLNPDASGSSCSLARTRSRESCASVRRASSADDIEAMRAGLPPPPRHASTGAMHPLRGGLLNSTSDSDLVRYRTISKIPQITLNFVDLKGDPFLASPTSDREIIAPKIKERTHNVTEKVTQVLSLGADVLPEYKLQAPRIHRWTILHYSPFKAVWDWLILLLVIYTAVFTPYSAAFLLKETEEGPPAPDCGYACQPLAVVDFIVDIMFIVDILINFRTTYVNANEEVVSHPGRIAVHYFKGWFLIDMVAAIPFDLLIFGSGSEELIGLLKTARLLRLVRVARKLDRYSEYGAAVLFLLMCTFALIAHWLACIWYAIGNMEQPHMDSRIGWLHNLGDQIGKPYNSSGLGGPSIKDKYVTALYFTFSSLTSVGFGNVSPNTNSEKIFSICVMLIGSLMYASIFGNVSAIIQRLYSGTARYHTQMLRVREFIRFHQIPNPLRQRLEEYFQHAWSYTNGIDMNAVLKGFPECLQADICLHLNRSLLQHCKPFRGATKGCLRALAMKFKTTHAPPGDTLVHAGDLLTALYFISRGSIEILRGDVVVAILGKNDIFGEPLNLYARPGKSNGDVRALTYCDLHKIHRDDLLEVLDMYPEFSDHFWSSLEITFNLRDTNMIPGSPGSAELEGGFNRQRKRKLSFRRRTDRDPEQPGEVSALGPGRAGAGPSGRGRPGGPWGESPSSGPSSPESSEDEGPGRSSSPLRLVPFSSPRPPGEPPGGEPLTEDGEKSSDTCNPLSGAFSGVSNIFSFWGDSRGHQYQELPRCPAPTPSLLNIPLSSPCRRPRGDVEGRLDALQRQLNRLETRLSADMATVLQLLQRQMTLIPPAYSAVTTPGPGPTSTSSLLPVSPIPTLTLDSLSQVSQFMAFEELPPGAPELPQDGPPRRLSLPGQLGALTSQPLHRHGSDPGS
Nature of the data set: Whole cell voltage clamp of IKr tail current in isolated canine left ventricular myocytes. Type of data set: cell-based. The procedure: Myocytes were isolated by enzymatic dissociation from a wedge-shaped section of the left ventricular free wall supplied by the left circumflex coronary artery. Cells from the epicardial and midmyocardial regions of the left ventricle were used in this study.
Inward rectifier potassium current (IK), slow delayed rectifier potassium current (IKs), and rapid delayed rectifier potassium current (IKr) were recorded at 37° C. using conventional whole cell voltage clamp configuration.
IK1 was measured using an external solution containing 3 μM ouabain and 5 μM nifedipine to block the sodium-potassium pump and L-type calcium current (ICa,L), respectively. […] 5 μM nifedipine was present in the external solution when IKr was being recorded.
Isolated myocytes were placed in a temperature controlled 0.5 ml chamber (Medical Systems, Greenvale, N.Y.) on the stage of an inverted microscope and superfused at a rate of 2 ml/min. […]
IKr was measured as the time-dependent tail current elicited at a potential of −40 mV following a short 250 ms depolarizing pulse to 30 mV. Data are presented as mean ±S.E.M. IK1 was recorded during 900 msec voltage steps applied from a holding potential of −40 mV to test potentials ranging from −100 mV to 0 mV, and was characterized as the 5 msec average of the steady state current at the end of the test pulse.

On to `COc1ccccc1OCC(O)CN1CCN(CC(=O)Nc2c(C)cccc2C)CC1` (racemic) [ranolazine, N-(2,6-dimethylphenyl)-4-[2-hydroxy-3-(2-methoxyphenoxy)propyl]-1-piperazineacetamide], for which the “Block of IKr” value (ranolazine 50 μM) is given as “almost completely blocked”. The half-maximal inhibitory concentration (IC50) (tail current at −40 mV after 250 msec pulse to 30 mV, read-out: IC50 for inhibition of IKr tail current) is 11.5 µM.

As usually defined, the IC50 is the point on the concentration scale where inhibition reaches its midpoint.
